Our source for the MIC and S_aureus_Smith_WT_MIC values is patent US20140243302A1, “BRIDGED BICYCLIC COMPOUNDS FOR THE TREATMENT OF BACTERIAL INFECTIONS” (priority 2011, published 2014).

Values after ≈ are worked out from the molar mass of the structure shown.

For the first assay, the system named is Staphylococcus aureus Smith. Briefly: MIC assay, modified agar dilution (CLSI), S. aureus Smith. It counts as cell-based. The conditions noted are these: Staphylococcus aureus, agar dilution, 35° C., 16-20 hr; lowest concentration that completely inhibited growth; read-out: S_aureus_Smith_WT_MIC. Here is the method: The potency of antibacterial agents was measured using the Minimal Inhibitory Concentration (MIC) assay. The assay measures the ability of test agents to inhibit the growth of bacteria on agar-containing medium.
The bacterial test strains used were exemplified by Staphylococcus aureus Smith, Enterococcus faecium A2373, Streptococcus pneumoniae IID554, and Escherichia coli ATCC 25922. All strains were maintained as frozen stocks held at −80° C. in skim milk. Other bacterial test strains are well known to those skilled in the art and can be used for testing.
Mueller Hinton Agar (MHA BBL; Becton Dickinson and Company, Sparks, Md.) was used as the medium. MHA was supplemented with 5% defibrinated horse blood (DHB; Nippon Biotest Laboratories inc.) to support the growth of S. pneumoniae and E. faecium.
MIC values were determined using a modified agar dilution procedure described by the Clinical and Laboratory Standards Institute (CLSI; Methods for Dilution Antimicrobial Susceptibility Tests for Bacteria That Grow Aerobically; Approved Standard—Eighth Edition. CLSI document M07-A8 [ISBN 1-56238-689-1]. Clinical and Laboratory Standards Institute, 940 West Valley Road, Suite 1400, Wayne, Pa. 19087-1898 USA, 2009).
Stock solutions (6.4 mgmL) of test compounds were prepared in 100% ultrapure dimethyl sulfoxide (DMSO; source) on the day of the assay. Subsequent serial dilutions were performed to generate solutions with concentrations ranging from 6.4 to 0.0002 mgmL in 100% DMSO.
Agar medium containing test compound was prepared by adding the dilutions of antimicrobial solution to molten MHA at a temperature of 45-50° C. The agar and antimicrobial solution were mixed thoroughly, poured into petri dishes, and allowed to solidify at room temperature. The final concentration of test compounds in the MHA medium ranged from 128 to 0.001 μg/mL with two-fold dilutions. MHA plates lacking antibacterial compound were used for growth controls.
Prior to susceptibility testing, the bacterial isolates were removed from frozen storage, thawed at room temperature, sub-cultured to MHA medium and incubated overnight at 35° C. S. pneumoniae and E. faecium were subcultured on MHA supplemented with 5% DHB at 35° C. with […]. Colonies from each plate were suspended in normal saline. This suspension was adjusted to the turbidity of a 0.5 McFarland standard, 1-2×10^8 colony forming units (CFU) per mL, and diluted 100-fold to 1-2×10^6 CFUmL.
Suspensions of bacterial cultures were applied to the surface of MHA plates containing test compound as well as to a growth control plate lacking test compound using an inoculum-replicating device with 4 mm pins. The replicating device applied 5 uL of the bacterial suspension such that each spot contained approx. 1×10^4 CFU. Plates were dried for about 40 min and incubated at 35° C. for 16-20 hr prior to scoring.
Background: In agar dilution, organisms are placed on agar that contains the substance at set levels.
Consider `COc1ccc2ncc(F)c(CC(O)C34CCC(NCc5cc6c(cn5)OCCO6)(CC3)CO4)c2n1` (single isomer, unassigned) [Example 132, 1-(4-((2,3-Dihydro-[1,4]dioxino[2,3-c]pyridin-7-yl)methylamino)-2-oxabicyclo[2.2.2]octan-1-yl)-2-(3-fluoro-6-methoxy-1,5-naphthyridin-4-yl)ethanol], for which the MIC is 0.031 µg/mL (≈ 0.0624 µM).

Turning to `COc1ccc2ncc(F)c(CC(O)C34CCC(NCc5cc6ccccc6n(C)c5=O)(CC3)CO4)c2n1` (single isomer, unassigned) [Example 133, 3-((1-(2-(3-Fluoro-6-methoxy-1,5-naphthyridin-4-yl)-1-hydroxyethyl)-2-oxabicyclo[2.2.2]octan-4-ylamino)methyl)-1-methylquinolin-2(1H)-one], the MIC was determined as 1 µg/mL (≈ 1.93 µM).

`COc1ccc2ncc(F)c(CC(O)C34CCC(NCc5cc6c(cn5)OCC(=O)N6)(CC3)CO4)c2n1` (single isomer, unassigned) [Example 134, 7-((1-(2-(3-Fluoro-6-methoxy-1,5-naphthyridin-4-yl)-1-hydroxyethyl)-2-oxabicyclo[2.2.2]octan-4-ylamino)methyl)-1H-pyrido[3,4-b][1,4]oxazin-2(3H)-one]: the MIC was found to be 0.063 µg/mL (≈ 0.124 µM).

In the case of `COc1ccc2ncc(F)c(CC(O)C34CCC(NCc5nc6c(cc5F)OCC(=O)N6)(CC3)CO4)c2n1` (single isomer, unassigned) [Example 135, 7-Fluoro-6-((1-(2-(3-fluoro-6-methoxy-1,5-naphthyridin-4-yl)-1-hydroxyethyl)-2-oxabicyclo[2.2.2]octan-4-ylamino)methyl)-2H-pyrido[3,2-b][1,4]oxazin-3(4H)-one], the MIC was found to be 0.031 µg/mL (≈ 0.0588 µM).

Take `COc1ccc2ncc(F)c(C[C@@H](O)C34CCC(NCc5cc6c(cn5)OCCO6)(CC3)CC4)c2n1.Cl` (single isomer, unassigned) [Example 200]: the MIC was found to be 0.75 µg/mL.

As to `COc1ccc2ncc(F)c(C[C@H](O)C34CCC(NCc5cc6c(cn5)OCCO6)(CC3)CC4)c2n1.Cl` (single isomer, unassigned) [Example 201], the MIC stood at 0.06 µg/mL.

In the case of `N#Cc1cnc2ccc(=O)n(CC(O)C34CCC(NCc5cc6c(cn5)OCCO6)(CC3)CO4)c2c1` (single isomer, unassigned; enantiomer a) [Example 159, 5-(2-(4-((2,3-Dihydro-[1,4]dioxino[2,3-c]pyridin-7-yl)methylamino)-2-oxabicyclo[2.2.2]octan-1-yl)-2-hydroxyethyl)-6-oxo-5,6-dihydro-1,5-naphthyridine-3-carbonitrile (Enantiomer A)], the MIC was 2 µg/mL (≈ 4.09 µM).

`N#Cc1cnc2ccc(=O)n(CC(O)C34CCC(NCc5ccc6c(n5)NC(=O)CO6)(CC3)CO4)c2c1` (single isomer, unassigned; enantiomer a) [Example 160, 5-(2-Hydroxy-2-(4-((3-oxo-3,4-dihydro-2H-pyrido[3,2-b][1,4]oxazin-6-yl)methylamino)-2-oxabicyclo[2.2.2]octan-1-yl)ethyl)-6-oxo-5,6-dihydro-1,5-naphthyridine-3-carbonitrile (Enantiomer A)]: the MIC worked out at 0.25 µg/mL (≈ 0.497 µM).

For the molecule `COC(=O)C1CC1COc1ccc2ncc(F)c(CCC34CCC(NCc5ccc6c(n5)NC(=O)CO6)(CC3)CO4)c2n1` (single isomer, unassigned; enantiomer a) [Example 227, Methyl 247-Fluoro-8-(2-(4-((3-oxo-3,4-dihydro-2H-pyrido[3,2-b][1,4]oxazin-6-yl)methylamino)-2-oxabicyclo[2.2.2]octan-1-yl)ethyl)-1,5-naphthyridin-2-yloxy)methyl)cyclopropanecarboxylate (Enantiomer A)], the MIC is 0.063 µg/mL (≈ 0.106 µM).

Take `COC(=O)[C@H]1C[C@H]1COc1ccc2ncc(F)c(CCC34CCC(NCc5ccc6c(n5)NC(=O)CO6)(CC3)CO4)c2n1` (single isomer, unassigned; enantiomer b) [Example 228, Methyl 2-((7-Fluoro-8-(2-(4-((3-oxo-3,4-dihydro-2H-pyrido[3,2-b][1,4]oxazin-6-yl)methylamino)-2-oxabicyclo[2.2.2]octan-1-yl)ethyl)-1,5-naphthyridin-2-yloxy)methyl)cyclopropanecarboxylate (Enantiomer B)]: the MIC turned out to be 0.25 µg/mL (≈ 0.423 µM).

Regarding `COc1ccc2nccc(CCC34CCC(NCc5ccc6c(n5)NC(=O)CO6)(CC3)CC4)c2n1.Cl` [Example 1, 6-((4-(2-(6-Methoxy-1,5-naphthyridin-4-yl)ethyl)bicyclo[2.2.2]octan-1-ylamino)methyl)-2H-pyrido[3,2-b][1,4]oxazin-3(4H)-one Hydrochloride], the MIC came to 0.031 µg/mL.

Still in this assay, the particulars now being: agar dilution, 35° C., 16-20 hr; lowest concentration that completely inhibited growth.
`O=C1COc2ccc(CNC34CCC(C(O)Cn5c(=O)ccc6ncc(F)cc65)(CC3)OC4)nc2N1` (single isomer, unassigned) [Example 55b, 6-((1-(2-(7-fluoro-2-oxo-1,5-naphthyridin-1(2H)-yl)-1-hydroxyethyl)-2-oxabicyclo[2.2.2]octan-4-ylamino)methyl)-2H-pyrido[3,2-b][1,4]oxazin-3(4H)-one] yielded a S_aureus_Smith_WT_MIC of 0.250 µg/mL.

The molecule `COc1ccc2ncc(F)c(C(C)C(O)C34CCC(NCc5ccc6c(n5)NC(=O)CO6)(CC3)CO4)c2n1` (single isomer, unassigned) [Example 151a, 6-((1-(2-(3-Fluoro-6-methoxy-1,5-naphthyridin-4-yl)-1-hydroxypropyl)-2-oxabicyclo[2.2.2]octan-4-ylamino)methyl)-2H-pyrido[3,2-b][1,4]oxazin-3(4H)-one] had a S_aureus_Smith_WT_MIC of 32.0 µg/mL.

Turning to `COc1ccc2ncc(F)c(C(C)C(O)C34CCC(NCc5ccc6c(n5)NC(=O)CO6)(CC3)CO4)c2n1` (single isomer, unassigned) [Example 151b, 6-((1-(2-(3-Fluoro-6-methoxy-1,5-naphthyridin-4-yl)-1-hydroxypropyl)-2-oxabicyclo[2.2.2]octan-4-ylamino)methyl)-2H-pyrido[3,2-b][1,4]oxazin-3(4H)-one], the S_aureus_Smith_WT_MIC was found to be 4.00 µg/mL.

For the molecule `N#Cc1cnc2ccc(=O)n(CC(O)C34CCC(NCc5cc6c(cn5)OCCO6)(CC3)CO4)c2c1` (single isomer, unassigned; enantiomer b) [Example 161, 5-(2-(4-((2,3-Dihydro-[1,4]dioxino[2,3-c]pyridin-7-yl)methylamino)-2-oxabicyclo[2.2.2]octan-1-yl)-2-hydroxyethyl)-6-oxo-5,6-dihydro-1,5-naphthyridine-3-carbonitrile (Enantiomer B)], the S_aureus_Smith_WT_MIC was 2.00 µg/mL.

Staying with this assay, now noted: agar dilution, 35° C., 16-20 hr; lowest concentration that completely inhibited growth; Hydrochloride.
For the molecule `COc1ccc2ncc(F)c(CCC34CCC(NCc5ccc6c(n5)NC(=O)C(C)O6)(CC3)CO4)c2n1.Cl` (single isomer, unassigned) [Example 100a, 6-((1-(2-(3-Fluoro-6-methoxy-1,5-naphthyridin-4-yl)ethyl)-2-oxabicyclo[2.2.2]octan-4-ylamino)methyl)-2-methyl-2H-pyrido[3,2-b][1,4]oxazin-3(4H)-one Hydrochloride], the S_aureus_Smith_WT_MIC was 0.250 µg/mL.

Molecule `COc1ccc2ncc(F)c(CCC34CCC(NCc5ccc6c(n5)NC(=O)C(C)O6)(CC3)CO4)c2n1.Cl` (single isomer, unassigned) [Example 100b, 6-((1-(2-(3-Fluoro-6-methoxy-1,5-naphthyridin-4-yl)ethyl)-2-oxabicyclo[2.2.2]octan-4-ylamino)methyl)-2-methyl-2H-pyrido[3,2-b][1,4]oxazin-3(4H)-one Hydrochloride] displayed a S_aureus_Smith_WT_MIC of 0.0630 µg/mL.
